Where “and” joins values, the source holds several entries; their conditions need not be identical. Equal entries are not always repeated. Where two headings read alike, the source gives them in different places.
Columns and labels:
Experiment in all cases: Chemosensitivity, 96 h continuous exposure, MTT assay
Type in all cases: cell-based, human
[1] = system: BxPC3
Procedure, shortened: (§1)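 Cells seeded at 2 × 10^3/well (GBM1 3 × 10^3/well) and left overnight at 37 °C, then exposed continuously for 96 h to a range of compound concentrations (final DMSO 0.2%). Viability read by MTT, absorbance at 540 nm; IC50 taken from dose-response curves as concentration reducing cell growth by 50%.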

[2] = system: MCF10A non-cancer cells
Procedure, shortened: as §1

[3] = system: H460
Procedure, shortened: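 Cells were seeded overnight at 37 °C (2 × 10^3/well; GBM1 at 3 × 10^3/well on poly-L-ornithine/laminin in Neurobasal with hFGF/rhEGF), then exposed to compound concentration ranges for 96 h. Viability was read by MTT (4 h, formazan in DMSO, A540) and IC50 taken from dose–response curves.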

[4] = system: DLD-1
Procedure, shortened: as §1

[5] = system: HCT116 p53+/+
Procedure, shortened: as §1

[6] = system: ARPE-19 non-cancer cells
Procedure, shortened: as §1

[7] = system: A549
Procedure, shortened: as §1

With `O=S(=O)([O-])[O-].[Cu+2].[Cu+2].[Cu+2].c1ccc(-c2csc(NCCN(CCNc3nc(-c4ccccn4)cs3)CCNc3nc(-c4ccccn4)cs3)n2)nc1.c1ccc(-c2csc(NCCN(CCNc3nc(-c4ccccn4)cs3)CCNc3nc(-c4ccccn4)cs3)n2)nc1` [[L2Cu3(SO4)]4+] the IC50 ([1]; BXPC3, mean of replicates, read-out: Mean IC50) was 491 nM, the IC50 ([1]; BXPC3, read-out: Mean IC50 values) was 491 nM and the IC50 ([1]; BXPC3, single replicate, read-out: IC50 values for each replicate) was 544 nM and 586 nM and 260 nM and 478 nM and 588 nM. For the same compound, the “Selectivity index (ARPE19)” value ([1]; IC50 ARPE-19 / IC50 BXPC3) was 245.03, the “Selectivity index (MCF10A)” value ([1]; IC50 MCF10A / IC50 BXPC3) was 101.29 and the “Relative potency (+ anion to no anion), Ratio + anion:no anion” value (shortened to “Relative potency … Ratio + anion:no anion”) ([1]; ratio of IC50, BXPC3) was 1.68. The “Selectivity indices relative to ARPE-19, Ratio + anion:no anion” value ([1]; ratio of SI (ARPE-19), BXPC3) was 1.364, the “Selectivity indices relative to MCF10A, Ratio + anion:no anion” value ([1]; ratio of SI (MCF 10A), BXPC3) was 0.615 and the IC50 ([2]; MCF10A non-cancer, read-out: Mean IC50 values) was 49700 nM. For the same compound, the IC50 ([2]; MCF10A, mean of replicates, read-out: Mean IC50) was 49700 nM, the IC50 ([2]; MCF10A, single replicate, read-out: IC50 values for each replicate) was 53200 nM and 42900 nM and 45100 nM and 57700 nM and the “Relative potency … Ratio + anion:no anion” value ([2]; ratio of IC50, MCF10A) was 1.03. The IC50 ([3]; H460, mean of replicates, read-out: Mean IC50) was 252 nM, the IC50 ([3]; H460, read-out: Mean IC50 values) was 252 nM and the IC50 ([3]; H460, single replicate, read-out: IC50 values for each replicate) was 438 nM and 207 nM and 188 nM and 219 nM and 227 nM and 234 nM. The “Selectivity index (ARPE19)” value ([3]; IC50 ARPE-19 / IC50 H460) was 477.42, the “Selectivity index (MCF10A)” value ([3]; IC50 MCF10A / IC50 H460) was 197.35 and the “Relative potency … Ratio + anion:no anion” value ([3]; ratio of IC50, H460) was 0.91. For the same compound, the “Selectivity indices relative to ARPE-19, Ratio + anion:no anion” value ([3]; ratio of SI (ARPE-19), H460) was 2.504, the “Selectivity indices relative to MCF10A, Ratio + anion:no anion” value ([3]; ratio of SI (MCF 10A), H460) was 1.129 and the IC50 ([4]; DLD-1, mean of replicates, read-out: Mean IC50) was 650 nM. For the same compound, the IC50 ([4]; DLD-1, read-out: Mean IC50 values) was 650 nM, the “Selectivity index (ARPE19)” value ([4]; IC50 ARPE-19 / IC50 DLD-1) was 185.09 and the “Selectivity index (MCF10A)” value ([4]; IC50 MCF10A / IC50 DLD-1) was 76.51. For the same compound, the “Relative potency … Ratio + anion:no anion” value ([4]; ratio of IC50, DLD-1) was 4.92, the “Selectivity indices relative to ARPE-19, Ratio + anion:no anion” value ([4]; ratio of SI (ARPE-19), DLD-1) was 0.464 and the “Selectivity indices relative to MCF10A, Ratio + anion:no anion” value ([4]; ratio of SI (MCF 10A), DLD-1) was 0.209. For the same compound, the IC50 ([5]; HCT116 p53+/+, mean of replicates, read-out: Mean IC50) was 668 nM, the IC50 ([5]; HCT116 p53+/+, read-out: Mean IC50 values) was 668 nM and the IC50 ([5]; HCT116 p53+/+, single replicate, read-out: IC50 values for each replicate) was 643 nM and 713 nM and 647 nM. For the same compound, the “Selectivity index (ARPE19)” value ([5]; IC50 ARPE-19 / IC50 HCT116 p53+/+) was 180.10, the “Selectivity index (MCF10A)” value ([5]; IC50 MCF10A / IC50 HCT116 p53+/+) was 74.45 and the “Relative potency … Ratio + anion:no anion” value ([5]; ratio of IC50, HCT116 p53+/+) was 1.35. For the same compound, the “Selectivity indices relative to ARPE-19, Ratio + anion:no anion” value ([5]; ratio of SI (ARPE-19), HCT116 p53+/+) was 1.697, the “Selectivity indices relative to MCF10A, Ratio + anion:no anion” value ([5]; ratio of SI (MCF 10A), HCT116 p53+/+) was 0.765 and the IC50 ([6]; ARPE-19, mean of replicates, read-out: Mean IC50) was 120000 nM. For the same compound, the IC50 ([6]; ARPE-19, single replicate, read-out: IC50 values for each replicate) was 126000 nM and 121000 nM and 113000 nM, the IC50 ([6]; ARPE-19 non-cancer, read-out: Mean IC50 values) was 120000 nM and the “Relative potency … Ratio + anion:no anion” value ([6]; ratio of IC50, ARPE-19) was 2.29. For the same compound, the IC50 ([7]; A549, mean of replicates, read-out: Mean IC50) was 680 nM, the IC50 ([7]; A549, read-out: Mean IC50 values) was 680 nM and the IC50 ([7]; A549, single replicate, read-out: IC50 values for each replicate) was 747 nM and 620 nM and 667 nM and 685 nM. For the same compound, the “Selectivity index (ARPE19)” value ([7]; IC50 ARPE-19 / IC50 A549) was 176.93, the “Selectivity index (MCF10A)” value ([7]; IC50 MCF10A / IC50 A549) was 73.14 and the “Relative potency … Ratio + anion:no anion” value ([7]; ratio of IC50, A549) was 2.92. The “Selectivity indices relative to ARPE-19, Ratio + anion:no anion” value ([7]; ratio of SI (ARPE-19), A549) was 0.783 and the “Selectivity indices relative to MCF10A, Ratio + anion:no anion” value ([7]; ratio of SI (MCF 10A), A549) was 0.353.

Source: article PMC8222254, “Self-assembly of an anion receptor with metal-dependent kinase inhibition and potent in vitro anti-cancer properties” (Nature Communications, 2021)
